In series [1] the test system is Haemonchus contortus. Put plainly: Method A: development of L1 Haemonchus contortus larvae in microtitre plate. The note with it: 96 h; for EC50: read-out: median EC50.
Protocol: Twenty L1 Haemonchus contortus larvae were added to wells of a microtitre plate containing a nutrient medium and the test compound in DMSO. An analysis was conducted at 4 days to determine the extent of development of the larvae. Larvae exposed to DMSO alone served as controls. The potencies of the compounds were evaluated in an MIC90 and/or EC50 format.
The conditions of series [2]: amide bond, 24-membered ring, BOP-Cl/DIEA.
In series [3] the test system is Microfilaria of Dirofilaria immitis. Put plainly: Method B: survival of microfilaria of Dirofilaria immitis in microtitre plate. The note with it: 72 h, read-out: median EC50, survival of microfilaria at 72 hours.
The conditions of series [4]: the molecule shown is the open-chain precursor; amide bond; 24-membered ring; BOP-Cl/DIEA; DCM; 58.9 mM.

≈ marks a conversion by molar mass, not a printed value. Like-named read-outs stand apart in the source and are kept apart here.

By EC50 is commonly meant the concentration at which the effect is half-maximal. For the compound `CC(C)C[C@H]1C(=O)O[C@H](C)C(=O)N(C)[C@@H](CC(C)(C)F)C(=O)O[C@H](Cc2ccc(C(F)(F)F)cc2)C(=O)N(C)[C@@H](CC(C)C)C(=O)O[C@H](C)C(=O)N(C)[C@@H](CC(C)(C)F)C(=O)O[C@H](Cc2ccc(C(F)(F)F)cc2)C(=O)N1C` [Compound 4-18], the values for the EC50 in series [1] and in series [3] were 100 to 1000 nM and below 100 nM, respectively. Also, the ring closure, yield after HPLC in series [2] (from H-MeLeu(4-F)-dPhLac(4-CF3)-MeLeu-dLac-MeLeu(4-F)-dPhLac(4-CF3)-MeLeu-dLac-OH?, DCM, 5.2 mM, 25.0 °C) amounted to 34%.

For `C[C@H]1OC(=O)[C@H](CC(C)(C)C)N(C)C(=O)[C@@H](Cc2ccc(OC(F)(F)F)cc2)OC(=O)[C@H](CC(C)(C)F)N(C)C(=O)[C@@H](C)OC(=O)[C@H](CC(C)(C)C)N(C)C(=O)[C@@H](Cc2ccc(OC(F)(F)F)cc2)OC(=O)[C@H](CC(C)(C)F)N(C)C1=O` [Compound 5-32], the concentration for a half-maximal effect (EC50) in series [1] and in series [3] was 100 to 1000 nM throughout. In series [2] (from H-MeLeu(4-F)-dPhLac(4-OCF3)-MeLeu(4-Me)-dLac-MeLeu(4-F)-dPhLac(4-OCF3)-MeLeu(4-Me)-dLac-OH, DCM, 4.17 mM), this compound registered a ring closure, yield after HPLC of 59%.

In the case of `CC(C)C[C@H]1C(=O)O[C@H](C)C(=O)N(C)[C@@H](CC(C)(C)F)C(=O)O[C@H](Cc2ccc(N3CCOCC3)cc2)C(=O)N(C)[C@@H](CC(C)C)C(=O)O[C@H](C)C(=O)N(C)[C@@H](CC(C)(C)F)C(=O)O[C@H](Cc2ccc(N3CCOCC3)cc2)C(=O)N1C` [Compound 6-18], the EC50 in series [1] is 100 to 1000 nM. The same compound had a ring closure, yield after HPLC in series [2] (from H-MeLeu(4-F)-dPhLac(4-morpholinyl)-MeLeu-dLac-MeLeu(4-F)-dPhLac(4-morpholinyl)-MeLeu-dLac-OH?, DCM, 1.7 mM, 25.0 °C) of 23%.

With `CC(C)C[C@H]1C(=O)O[C@H](C)C(=O)N(C)[C@@H](CC(C)(C)F)C(=O)O[C@H](Cc2ccc(C3CCOCC3)cc2)C(=O)N(C)[C@@H](CC(C)C)C(=O)O[C@H](C)C(=O)N(C)[C@@H](CC(C)(C)F)C(=O)O[C@H](Cc2ccc(C3CCOCC3)cc2)C(=O)N1C` [Compound 7-18], the EC50 was 1000 to 10000 nM in series [1] and below 100 nM in series [3]. This compound registered a ring closure, yield after HPLC in series [2] (from H-MeLeu(4-F)-dPhLac(4-(oxan-4-yl))-MeLeu-dLac-MeLeu(4-F)-dPhLac(4-(oxan-4-yl))-MeLeu-dLac-OH, DCM, 10.75 mM, 0.0 °C) of 60%.

In the case of `CC(C)C[C@H]1C(=O)O[C@H](Cc2ccc(C3CCOCC3)cc2)C(=O)N(C)[C@@H](CC(C)C)C(=O)O[C@H](C)C(=O)N(C)[C@@H](CC(C)C)C(=O)O[C@H](Cc2ccc(C3CCOCC3)cc2)C(=O)N(C)[C@@H](CC(C)C)C(=O)O[C@H](C)C(=O)N1C` [Compound 7-27], the results for the EC50 in series [1] and in series [3] were 1000 to 10000 nM and below 100 nM, respectively. In addition, in series [2] (from H-MeLeu-dPhLac(4-oxan-4-yl)-MeLeu-dLac-MeLeu-dPhLac(4-oxan-4-yl)-MeLeu-dLac-OH?, 25.0 °C), the ring closure, yield after HPLC is 13%.

Consider `C[C@H]1OC(=O)[C@H](CC(C)(C)C)N(C)C(=O)[C@@H](Cc2ccc(C3CCOCC3)cc2)OC(=O)[C@H](CC(C)(C)F)N(C)C(=O)[C@@H](C)OC(=O)[C@H](CC(C)(C)C)N(C)C(=O)[C@@H](Cc2ccc(C3CCOCC3)cc2)OC(=O)[C@H](CC(C)(C)F)N(C)C1=O` [Compound 7-32], for which the EC50 in series [1] and in series [3] was below 100 nM in each case. The ring closure, yield after HPLC in series [2] (from H-MeLeu(4-F)-dPhLac(4-(oxan-4-yl))-MeLeu(4-Me)-dLac-MeLeu(4-F)-dPhLac(4-(oxan-4-yl))-MeLeu(4-Me)-dLac-OH, DCM, 25.0 mM) came out at 61%.

In general, MIC90 refers to an inhibitory concentration at the 90% level, which refers to growth in some studies and to a panel of isolates in others. As to `CC(C)C[C@H]1C(=O)O[C@H](Cc2ccc(C(C)(C)C)cc2)C(=O)N(C)[C@@H](CC(C)(C)F)C(=O)O[C@H](C)C(=O)N(C)[C@@H](CC(C)C)C(=O)O[C@H](Cc2ccc(C(C)(C)C)cc2)C(=O)N(C)[C@@H](CC(C)(C)F)C(=O)O[C@H](C)C(=O)N1C` [Compound 18-19], the MIC90 in series [1] (read-out: median MIC90) is 1 to 10 µM (≈ 1.1 to 11 µg/mL). The ring closure, yield after HPLC in series [2] (from H-MeLeu-dPhLac(4-tBu)-MeLeu(4-F)-dLac-MeLeu-dPhLac(4-tBu)-MeLeu(4-F)-dLac-OH, DCM, 0.9 mM) was found to be 13%. In addition, the EC50 in series [3] was below 100 nM.

In the case of “H-MeLeu(4-F)-dPhLac(4-tBu)-MeLeu(4-Me)-dLac-MeLeu(4-F)-dPhLac(4-tBu)-MeLeu(4-Me)-dLac-OH”, in series [4], the ring closure, isolated yield is 55%.

The values above are taken from patent US12286455B2, “Anthelmintic depsipeptide compounds” (BOEHRINGER INGELHEIM ANIMAL HEALTH USA INC., priority 2015, dated 2025).
